What was measured:
FGF-2 = FGF-2 mRNA expression in mesenterium by semiquantitative RT-PCR; type: in vivo, Sprague-Dawley rats; settings: peritoneal tissue, uremic rats with PD plus pyridoxamine, FIG. 7C
Source text: (§1) Six-week-old male Sprague-Dawley rats weighing 200±3 g (CLER Japan, Inc., Tokyo) were randomly assigned to: sham-operated control rats (Group 1: n=6); uremic rats without peritoneal dialysis (Group 2: n=12); and uremic rats undergoing peritoneal dialysis (n=24). The uremic rats undergoing peritoneal dialysis were further divided into two groups: a group dialyzed with 4.25% Dianeal (registered trademark) (3.86% glucose, 2.5 mEq/CAPD fluid, Baxter Healthcare Corp., Round Lake; IL, USA) (Group 3: n=12); and a group peritoneally dialyzed with 4.25% Dianeal (registered trademark) containing pyridoxamine (Pridorine, Biostratum Inc., NC, USA) at 5 mg/l (Group 4: n=12). […]
(§2) Expression of VEGF or FGF2 (mesenterium) mRNA was analyzed by using semiquantitative reverse transcriptase-polymerase chain reaction (RT-PCR). […]
(§3) β-actin was used as an internal standard of RNA to enable comparison of RNA levels among different samples. […] The PCR products that were resolved by electrophoresis on a 2% agarose gel and stained using ethidium bromide were quantified by measuring the signal intensity with a quantitation program (NIH image software). The mRNA was determined in triplicate and the results were averaged for each experiment. […] The results were averaged and expressed as means±SD. […]

[1] = test system: peritoneal membrane of uremic rats; experiment: Functional analysis of peritoneal membrane by peritoneal equilibration test (PET); type: in vivo, Sprague-Dawley rats
Source text: (§4) Six-week-old male Sprague-Dawley rats weighing 200±3 g (CLER Japan, Inc., Tokyo) were randomly assigned to: sham-operated control rats (Group 1: n=6); uremic rats without peritoneal dialysis (Group 2: n=12); and uremic rats undergoing peritoneal dialysis (n=24). The uremic rats undergoing peritoneal dialysis were further divided into two groups: a group dialyzed with 4.25% Dianeal (registered trademark) (3.86% glucose, 2.5 mEq/CAPD fluid, Baxter Healthcare Corp., Round Lake; IL, USA) (Group 3: n=12); and a group peritoneally dialyzed with 4.25% Dianeal (registered trademark) containing pyridoxamine (Pridorine, Biostratum Inc., NC, USA) at 5 mg/l (Group 4: n=12).
Uremic models were generated by 5/6 nephrectomy according to previous reports [Lameire N, et al. Kidney Int 54: 2194-2206, 1998; and Kleinknecht C, et al., Kidney Int 47: S51-S54, 1995]. The animals were provided free access to standard experimental rat chow (CE2: CLER Japan, Inc., Tokyo) containing 1.06% calcium, 0.9% phosphate, and 21% proteins, and tap water until the evening prior to slaughter. On the 13th week, Rat-o-Ports with a 13.5 cm catheter (Access Technologies, Norfolk Medical, Skokie, Ill., USA) were implanted into all the rats under anesthetization of isoflurane. The Rat-o-ports were implanted subcutaneously in the neck, after one week of which the peritoneal dialysis with 30 ml of dialysate was initiated twice a day. The PD was continued for 6 weeks [Zweers MM, et al., Nephrol Dial Transplant 16: 651-654, 2001]. Before the initiation of the peritoneal dialysis, four, five, and two rats had died respectively in Group 2, Group 3, and Group 4. […]
(§5) After 6 weeks of PD, 4.25% Dianeal (registered trademark) was injected from the access port and a peritoneal equilibration test (60 minutes) was performed. […] Mesenterium was excised and assessed by light microscopy or immunohistochemistry.
(§6) The concentrations of glucose, creatinine, urea, total cholesterol, and triglyceride in plasma and peritoneal dialysate were measured with an autoanalyzer (Hitachi 736-60, Hitachi Co. Ltd., Tokyo).
The dialysate/plasma (D/P) ratio of Cr (A) and urea (B), and the absorption of glucose from the dialysate (D/D0) (C) were assessed, during a 60-minute exchange with 20 ml of 3.85% glucose dialysate, in control rats (Group 1), uremic rats without PD (Group 2), uremic rats undergoing peritoneal dialysis in the absence of pyridoxamine (Group 3), and uremic rats undergoing peritoneal dialysis in the presence of 5 mg/L pyridoxamine (Group 4). a: p<0.01 vs. Group 1. b: p<0.01 vs. Group 2. c: p<0.01 vs. Group 3. d: p<0.01 vs. Group 4. e: p<0.05 vs. Group 3. f: p<0.05 vs. Group 4.

[2] = test system: pentosidine (AGE and carbonyl stress marker); experiment: Pentosidine content in peritoneal membrane by HPLC; type: in vivo, Sprague-Dawley rats
Source text: as §4
(§7) Uremic models were generated by 5/6 nephrectomy according to previous reports [Lameire N, et al. Kidney Int 54: 2194-2206, 1998; and Kleinknecht C, et al., Kidney Int 47: S51-S54, 1995]. […]
as §5
The pentosidine content in the rat peritoneal membrane was assessed as follows, using HPLC in accordance with an already-reported method [Miyata T, et al., J. Am. […] The effluent was monitored using a fluorescence detector (RF-10A: Shimadzu, Tokyo) at an excitation-emission wavelength of 335/385 nm. […]

[3] = Biochemical data and body weight of subtotally nephrectomized uremic rats undergoing peritoneal dialysis; type: in vivo; settings: 6-week PD with pyridoxamine 5 mg/l (Group 4), 21 weeks, mean ± SD
Source text: as §4, §7, §5, §6

[4] = test system: VEGF, FGF-2, vWF, AGEs, and TGF-β1; experiment: Immunohistochemical analysis of mesenterium tissue sections; type: in vivo, Sprague-Dawley rats; settings: rats treated with pyridoxamine; prominent in uremic rats with PD, FIG. 8
Source text: as §4
Uremic models were generated by 5/6 nephrectomy according to previous reports [Lameire N, et al. Kidney Int 54: 2194-2206, 1998; and Kleinknecht C, et al., Kidney Int 47: S51-S54, 1995]. The animals were provided free access to standard experimental rat chow (CE2: CLER Japan, Inc., Tokyo) containing 1.06% calcium, 0.9% phosphate, and 21% proteins, and tap water until the evening prior to slaughter. […]
(§8) After 6 weeks of PD, 4.25% Dianeal (registered trademark) was injected from the access port and a peritoneal equilibration test (60 minutes) was performed. […] Mesenterium was excised and assessed by light microscopy or immunohistochemistry. […]

[5] = test system: vessels in the peritoneal tissue; experiment: Number of vessels in mesenterium (von Willebrand factor staining, image analysis); type: in vivo, Sprague-Dawley rats; settings: uremic rats with PD plus pyridoxamine; uremia alone 1.87-fold, PD 5.83-fold
Source text: as §4, §7, §8
The number of vessels was assessed in the sections stained for von Willebrand factor by image analysis using a WinROOF software (Mitani. Corporation, Tokyo). […]

VEGF = VEGF mRNA expression in mesenterium by semiquantitative RT-PCR; type: in vivo, Sprague-Dawley rats; settings: peritoneal tissue, uremic rats with PD plus pyridoxamine, FIG. 7B
Source text: as §1, §2, §3

Cc1ncc(CO)c(CN)c1O [pyridoxamine]
FGF-2 mRNA expression (ratio over β-actin) (FGF-2): equivalent levels to those of uremic rats without PD
Absorption rate of glucose from the dialysate (D/D0) ([1]; 6-week treatment, pyridoxamine 5 mg/L in dialysate, 60-minute PET, vs Group 3): significantly lowered
Transport rate of small solutes (creatinine, urea) from the plasma (D/P ratio) ([1]; 6-week treatment, pyridoxamine 5 mg/L in dialysate, 60-minute PET, vs uremic PD rats without pyridoxamine (Group 3)): significantly lowered
Slope of the regression line between increased permeability for small solutes (creatinine and glucose) and degree of renal failure ([1]; Group 4, FIGS. 3A and B): dramatically lowered
Influence of uremia on membrane permeability ([1]; pyridoxamine treatment, uremic rats with PD): completely dissipated
Slope of the regression line between pentosidine content and renal failure ([2]; Group 4, FIG. 5B, in words): lowered the slope of the regression line
Tissue pentosidine content ([2]; Group 4 vs Group 3, FIG. 5A): significantly lowered
Body weight [3]: 419 ± 29 g
VEGF, FGF-2, vWF, AGEs, and TGF-β1 stainings in capillaries of the mesenterium [4]: only faint stainings
Increase in vessel number (ratio to number of vessels of healthy control animals) [5]: 2.68 fold
VEGF mRNA expression (ratio over β-actin) (VEGF): equivalent levels to those of uremic rats without PD

Reference: patent US20110021579A1, “PERITONEUM PROTECTING AGENT” (TOKAI UNIVERSITY EDUCATIONAL SYSTEM, priority 2005, published 2011)
